Data set [1] has as its system cysteine/glutamate exchange. The settings on record: preclinical studies; cited from earlier work.
The test system of data set [2] is alcohol-dependent individuals. Description: Randomized, double-blind, placebo-controlled trial for treating alcohol dependence: safety. Particulars: N-acetylcysteine up to 3600 mg/day, 8-week treatment. The data set is classed as in vivo, human. The protocol: (§1) Alcohol-dependent individuals were recruited for participation in a randomized, double-blind, placebo-controlled trial for treating alcohol dependence. To evaluate the safety and efficacy of N-acetylcysteine, 2 groups (N-acetylcysteine 3600 mg/day and placebo) were compared. The total study duration was 9 weeks which included a 1-week screening period and an 8-week randomized study drug treatment period. Subjects were randomized to one of two groups (Table 1) and were evaluated weekly.
(§2) Of 46 subjects, 44 subjects who took at least one study medication were included in analysis. Data analyses were conducted on an intention-to-treat sample using the linear mixed effects model introduced by Laird and Ware (Laird, N. M. & J. H. Ware. 1982. “Random-Effects Models for Longitudinal Data.” Biometrics 38:963-974). Outcome variables were measured over nine consecutive weeks. The covariates were Alcoholics Anonymous attendance and baseline alcohol craving. All the P-values reported are 2-tailed. Significance level was set at p<0.05.

Data set [3] has as its system cocaine-dependent patients. The settings on record: cited from earlier work.
Data set [4] is described as follows: Liver function tests (plasma AST, ALT, GGT) during the trial. The settings on record: for ALT / AST / GGT: plasma. The data set is classed as in vivo, human. Further details: AST / ALT / GGT: unit not given here. The protocol:
as §1
The effect of N-acetylcysteine on liver functions was measured during the trial described in Example 1. Liver functions were assessed by measuring changes in plasma aspartate aminotransferase (AST), alanine aminotransferase (ALT) and γ-glutamyl transferase (GGT) levels three times during the study (week 0, week 5 and week 9).

For data set [5] the following is noted: in vivo; cited from earlier work.
The nature of data set [6]: Case reports: food cravings and compulsive overeating. The data set is classed as in vivo, human.
The conditions of data set [7]: in vivo; cited from earlier work. The source holds these as a separate data set.
Data set [8] concerns alcohol-dependent individuals. Description: Quality of Life Enjoyment and Satisfaction Questionnaire (Q-LES-Q) during the trial. The data set is classed as in vivo, human. Also on record: key to Q-LES-Q: 16-item Q-LES-Q, 5-point scale; higher = better health status. Here is the method: as §1, §2
The effect of N-acetylcysteine on quality of life was measured weekly during the trial described in Example 1. The quality of life was measured by the Quality of Life Enjoyment and Satisfaction Questionnaire (Q-LES-Q).
The short form of the Q-LES-Q is a 16-item self-rated scale designed to assess quality of life, differences in the degree of enjoyment and satisfaction among groups of subjects, as well as changes over time in a single subject (Endicott J., et al., Quality of Life Enjoyment and Satisfaction Questionnaire: a new measure, Psychopharmacol. Bull., 1993, 29(2), 321-326). It is a 5-point scale, with higher scores indicating better health status. The Q-LES-Q SF has been used extensively in drug treatment trials in psychiatry and addictions and has shown good reliability and validity (Endicott J., et al., Pediatric Quality of Life Enjoyment and Satisfaction Questionnaire (PQ-LES-Q): reliability and validity. J. Am. Acad. Child Adolesc. Psychiatry, 2006, 45(4), 401-7). It assesses the following areas: physical health, mood, work, household activities, social relationships, family relationships, leisure time activities, ability to function in daily life, sexual drive, interest and/or performance, economic status, living/housing situation, ability to get around physically, ability to do work or hobbies, and overall sense of well being.

Data set [9] can be described thus: Case report: sexual cravings and hypersexual behaviors. The data set is classed as in vivo, human. Particulars: for hypersexual symptoms: naltrexone and topiramate before N-acetylcysteine. The source says: They had sexual arousal even at age five to six years old. They started to masturbate several years later. Pretty soon masturbation became compulsive daily and multiple times a day. By then they had more access to pornography and internet. They would spend hours and hours on it. Their personal life was devastated. They had been in 12 step program called “Sex Addicts Anonymous” for the past 10 years in one of the largest cities in the US. Problem would repeatedly haunt them. Although they were given various antidepressants by doctors their condition had never stopped. They were treated with naltrexone and topiramate. […] Their hypersexual cravings and symptoms were gone. Currently, they are happily married and doing well at work. They are no longer taking naltrexone or topiramate. They are taking N-acetylcysteine only on an as needed basis. We have found same principles in voyeurism, exhibitionism and other sexual deviations. These patients often end up in jail yet they can't help themselves because of uncontrollable cravings.

Data set [10] relates to alcohol-dependent individuals. Description: Alcohol craving by Penn Alcohol Craving Scale (PACS) during the trial. The data set is classed as in vivo, human. Here is the method: as §1, §2
During the trial described in Example 1, alcohol craving was measured weekly by the Penn Alcohol Craving Scale (PACS)(Flannery B. A., et al., Psychometric properties of the Penn Alcohol Craving Scale. Alcohol, Clin. Exp. Res. 1999, 23(8), 1289-95). The PACS is a 5-item self-rated scale designed to assess alcohol craving severity (frequency, intensity, duration, resistance, and overall craving) during the preceding 1 week. Each item has a score range of 0-6 (maximum total craving score=30).

Data set [11] has as its system patients with alcohol dependence. Description: Case reports: alcohol consumption and alcohol-related symptoms. The data set is classed as in vivo, human. Further details: AST / ALT: unit not given here.
Data set [12] in a line: Case report: shopping cravings and compulsive shopping. Particulars: person, 2400-3600 mg/day, within two weeks. The data set is classed as in vivo, human. Here is the method: They have had compulsive shopping behaviors for the past 20 years. They have been under severe financial stress because of their spending habits and unemployment. They had other addictive behaviors such as drinking, hoarding and overeating. Earlier, they were married, had stable job but lost everything. Various medicines such as antipsychotics and antidepressants were ineffective. On the third visit they were given N-acetylcysteine and was advised to take 2400-3600 mg/day.

The subject of data set [13] is alcohol-dependent individuals. Description: Alcohol craving by Obsessive Compulsive Drinking Scale (OCDS) during the trial. Also on record: key to OCDS: OCDS total score, 14 items scored 0-4, max 56. The data set is classed as in vivo, human. The protocol:
as §1, §2
Alcohol craving was also measured weekly by the Obsessive Compulsive Drinking Scale (OCDS) (Anton R. F., et al., The obsessive compulsive drinking scale: A new method of assessing outcome in alcoholism treatment studies. Arch. Gen. Psychiatry. 1996, 53(3), 225-231; Anton R. F., et al., The Obsessive Compulsive Drinking Scale: a self-rated instrument for the quantification of thoughts about alcohol and drinking behavior, Alcohol Clin. Exp. Res., 1995, 19(1), 92-99). The OCDS is a 14-item self-rated reliable scale designed to assess obsessive and compulsive aspects of alcoholism. Each item has a score range of 0-4 (maximum total score=56). Studies of factor analysis have reported that the OCDS loads to three or four factors (OCDS: P<0.05) (Roberts. J. S., et al., Factor structure and predictive validity of the Obsessive Compulsive Drinking Scale, Alcohol Clin. Exp. Res., 1999, 23(9), 1484-1491; Bohn, M. J., et al., Psychometric properties and validity of the obsessive-compulsive drinking scale, Alcohol Clin. Exp. Res., 1996, 20(5), 817-23; Kranzler, H. R., et al., Validity of the Obsessive Compulsive Drinking Scale (OCDS): does craving predict drinking behavior?, Alcohol Clin. Exp. Res. 1999, 23(1), 108-14).

`CC(=O)N[C@@H](CS)C(=O)O` [N-acetylcysteine]: in data set [1], the cocaine-primed reinstatement entry was “inhibited”. Further, the heroin-induced reinstatement result in data set [1] is reported as “inhibited”. Also, the serious adverse effects result in data set [2] is recorded as “no serious adverse effects”. Moreover, the tolerability entry in data set [2] is listed as “well tolerated”. Besides, the “cocaine use and craving” value in data set [3] (double-blind placebo-controlled crossover trial) is “reduced cocaine use and craving”. Further, the safety and tolerability entry in [3] (human, in vivo) is “safe and well tolerated”. Further, in [3] (open-label clinical study of cocaine-dependent patients), the cocaine use result is “significantly reduced cocaine use”. Besides, the “liver functions (AST, ALT, GGT liver function tests)” value in data set [4] (8-week trial) is reported as “improved liver functions”. In addition, the ALT in data set [4] (Week 0) was 36.67; in [4] (Week 5), 33.06; in [4] (Week 9), 29.13; in data set [11] (Case 2, from 51, in two months while taking N-acetylcysteine), 18. Moreover, the AST in [4] (Week 0) was determined as 40.89; in data set [4] (Week 5) it was 30.28; in [4] (Week 9) it was 26.13; in [11] (Case 2, from 41, in two months while taking N-acetylcysteine) it was 20. Also, the GGT in data set [4] (Week 0) stood at 193.00; in data set [4] (Week 5) it was 139.06; in [4] (Week 9) it was 92.93; in data set [11] (Case 2, from 1420, in two months while taking N-acetylcysteine), 327. In addition, the half-life result in [5] was “short half-life”. The weight in data set [6] (Case 1, from 239 lbs, in 5 weeks, 2700-3600 mg per day) was 225 lbs; in [6] (Case 1, two months later, 3600 mg), 224 lbs; in [6] (Case 2, from 295 lbs, in one month), 286 lbs. The “time for food craving to subside after taking” value in data set [6] (Case 3, 1200 mg) was no more than 15 min. The weight lost in [6] (Case 3, start 220 lbs, two weeks, 1200 mg three times a day) was 6 lbs. Moreover, the “food cravings and compulsive overeating” value in data set [6] (numerous test subjects) is “reduced food cravings and compulsive overeating”. In data set [7], the “treatment of pathological gambling” value is on record as “showed the efficacy”. In addition, the Q-LES-Q came out at 50.4000 in data set [8] (Week 1); 51.6390 in data set [8] (Week 2); 53.8772 in [8] (Week 3); 54.1789 in [8] (Week 4); 57.7852 in data set [8] (Week 5); 57.5529 in data set [8] (Week 6). The values for the Q-LES-Q in data set [8] (Week 7), in data set [8] (Week 8) and in [8] (Week 9) were 58.1422, 57.8000 and 58.7244, respectively. Further, the “quality of life by Q-LES-Q compared to placebo” value in data set [8] (during the trial, p=0.017) was “improved the quality of life”. For the same compound, the “effect in voyeurism, exhibitionism and other sexual deviations” value in data set [9] (patients with uncontrollable cravings) is “works dramatically”. For the same compound, in data set [9] (person, 2400-3600 mg/day added to naltrexone and topiramate), the “hypersexual cravings and symptoms” value is given as “ameliorated dramatically”. Besides, the PACS in data set [10] (Week 1) is on record as 18.1429; in data set [10] (Week 2), 15.1500; in [10] (Week 3), 14.0000; in [10] (Week 4), 11.9474; in data set [10] (Week 5), 11.7778; in data set [10] (Week 6), 9.3529. In addition, the figures for the PACS in data set [10] (Week 7), in data set [10] (Week 8) and in data set [10] (Week 9) were 8.3333, 7.2667 and 7.2000, respectively. Further, the “alcohol craving by PACS compared to placebo” value in data set [10] (during the trial, p=0.041) is listed as “decreased alcohol craving”. The alcohol use result is listed as “able to stop drinking alcohol” in data set [11] (Case 1, after taking 900 mg); “able to abstain from alcohol” in data set [11] (Case 2, soon after start); “able to stop drinking alcohol completely” in data set [11] (Case 3, at 3600 mg/day); 6 drinks/day in [11] (Case 4, 900 mg, before 12-24 beers/day); “able to abstain from alcohol” in data set [11] (Case 4, several weeks later, 2400-3600 mg). Also, in data set [11] (Case 1, on 3600 mg), the alcohol craving result was “substantial reduction in their craving”. Further, the drinking consumption result in data set [11] (Case 5, 3600 mg, before 6-12 drinks of vodka per day) was “reduced their drinking significantly”; in [11] (Case 5, at 900-2700 mg/day), “about the same”. In addition, in data set [11] (numerous test subjects), the “alcohol consumption and other alcohol-related symptoms” value is “reduced alcohol consumption and other alcohol-related symptoms”. In data set [12], the “shopping cravings and behaviors” value was “stopped dramatically”. For the same compound, the OCDS amounted to 29.0000 in [13] (Week 1); 24.9000 in [13] (Week 2); 21.6316 in data set [13] (Week 3); 20.3684 in data set [13] (Week 4); 18.5556 in data set [13] (Week 5); 16.0000 in data set [13] (Week 6). For the same compound, the results for the OCDS in data set [13] (Week 7), in data set [13] (Week 8) and in [13] (Week 9) were 13.5333, 13.4667 and 13.8000, respectively. Besides, in [13] (during the trial, p=0.042), the “alcohol craving by OCDS compared to placebo” value was “decreased alcohol craving”.

For the compound `CC1(C)O[C@@H]2[C@@H](CO[C@@]3(COS(N)(=O)=O)OC(C)(C)O[C@@H]23)O1` [topiramate], in data set [9] (person), the hypersexual symptoms result is listed as “only partially”.

Turning to `O=C1CC[C@@]2(O)[C@H]3Cc4ccc(O)c5c4[C@@]2(CCN3CC2CC2)[C@H]1O5` [naltrexone], the hypersexual symptoms result in data set [9] (person) is “only partially”.

The values are drawn from US20120270860A1, “METHODS FOR TREATING OR PREVENTING ALCOHOL-RELATED DISORDERS OR CRAVING-RELATED DISORDERS” (priority 2011, published 2012).
